Laboratory results taken from patent publication US6388090B2, “Imidazole derivatives” (Orion Corporation, priority 2000, dated 2002).

System: alpha2 Adrenoceptors (Alpha2AR)
Experiment: Antagonist activity on alpha2 adrenoceptors in rat vas deferens in vitro (electrically evoked contractions)
Conditions: isolated rat vas deferens, field stimulation; antagonist added at least five minutes before alpha2AR agonist
Description: Antagonist activity on alpha2 Adrenoceptors (Alpha2AR) in rat vas deferens in vitro
Rats were killed by CO2-suffocation. Vas deferentia were dissected out and both prostatic halves were removed to tissue chambers containing Krebs-solution of the following composition (mM): NaCl 118, KCl 4.7, CaCl22.5, KH2PO41.2, MgSO40.6, NaHCO325, glucose 11.1, aerated by 5% carbogen, temperature 37° C., pH 7.4. Propranolol […] and desipramine […] were added to prevent the possible effects on […] receptors and to prevent re-uptake of released norepinephrine, respectively. Preparations were tied to the bottom hooks of the incubation chambers and then to isometric force-displacement transducers above. Electrical stimulation was started after the equilibrium period (5 minutes under a resting tension of 0.5 g) by introducing field stimulation with the following parameters: twin-pulses, voltage 70 V, frequency 0.2 Hz, delay 5 ms, duration 2 ms. […] Inhibition of the electrically evoked contractions was measured as the response to alpha2AR agonists. Antagonist was administered into the incubation medium at least five minutes before agonist. Means ± SEM of percentage inhibition were calculated in the absence and in the presence of antagonist and expressed as dose-response curves. In order to express the antagonist potency, the pA2-value was calculated.

| SMILES | vas deferens Alpha2 antagonistic activity, pA2 |
| --- | --- |
| c1ccc(C2CC(Cc3c[nH]cn3)c3ccccc32)cc1 (stereo not shown) [Compound 1, 4-(3-Phenylindan-1-ylmethyl)-1H-imidazole] | pA2 = 7.0 |
| COc1cc2c(cc1OC)C(c1ccccc1)CC2Cc1c[nH]cn1 (stereo not shown) [Compound 2, 4-(5,6-Dimethoxy-3-phenylindan-1-ylmethyl)-1H-imidazole] | pA2 = 6.0 |
| Oc1cc2c(cc1O)C(c1ccccc1)CC2Cc1c[nH]cn1 (stereo not shown) [Compound 3, 1-(1H-Imidazol-4-ylmethyl)-3-phenylindan-5,6-diol] | pA2 = 5.6 |
| Oc1ccc2c(c1)C(Cc1c[nH]cn1)CC2c1ccccc1 (stereo not shown) [Compound 4, 3-(1H-imidazol-4-ylmethyl)-1-phenylindan-5-ol] | pA2 = 6.9 |
| COc1ccc(C2CC(Cc3c[nH]cn3)c3cc(OC)ccc32)cc1 (stereo not shown) [Compound 5, 4-[6-Methoxy-3-(4-methoxyphenyl)indan-1-ylmethyl]-1H-imidazole] | pA2 = 6.3 |
| Oc1ccc(C2CC(Cc3c[nH]cn3)c3cc(O)ccc32)cc1 (stereo not shown) [Compound 6, 1-(4-Hydroxyphenyl)-3-(1H-imidazol-4-ylmethyl)indan-5-ol] | pA2 = 6.6 |
| Fc1ccc(C2CC(Cc3c[nH]cn3)c3ccccc32)cc1 (stereo not shown) [Compound 7, 4-[3-(4-Fluorophenyl)indan-1-ylmethyl]-1H-imidazole] | pA2 = 7.6 |
| Oc1ccc2c(c1)C(Cc1c[nH]cn1)CC2c1ccc(F)cc1 (stereo not shown) [Compound 8, 1-(4-Fluorophenyl)-3-(1H-imidazol-4-ylmethyl)indan-5-ol] | pA2 = 6.7 |
| Fc1cccc(C2CC(Cc3c[nH]cn3)c3ccccc32)c1 (stereo not shown) [Compound 9, 4-[3-(3-Fluorophenyl)indan-1-ylmethyl]-1H-imidazole] | pA2 = 6.2 |
| Fc1ccccc1C1CC(Cc2c[nH]cn2)c2ccccc21 (stereo not shown) [Compound 10, 4-[3-(2-Fluorophenyl)indan-1-ylmethyl]-1H-imidazole] | pA2 = 6.2 |
| Fc1ccc(C2CC(Cc3c[nH]cn3)c3ccccc32)cc1F (stereo not shown) [Compound 11, 4-[3-(3,4-Difluorophenyl)indan-1-ylmethyl]-1H-imidazole] | pA2 = 6.2 |
| c1ccc(C2OC(Cc3c[nH]cn3)c3ccccc32)cc1 (stereo not shown) [Compound 12, 4-(3-Phenyl-1,3-dihydroisobenzofuran-1-ylmethyl)-1H-imidazole] | pA2 = 6.3 |
| COc1ccc2c(c1)C(Cc1c[nH]cn1)C(c1ccccc1)C2 (stereo not shown) [Compound 13, 4-[(2,3-Dihydro-6-methoxy-2-phenyl-1H-inden-1-yl)methyl]-1H-imidazole] | pA2 = 5.6 |
| Oc1ccc2c(c1)C(Cc1c[nH]cn1)C(c1ccccc1)C2 (stereo not shown) [Compound 14, 3-(1H-Imidazol-4-ylmethyl)-2-phenylindan-5-ol] | pA2 = 5.5 |
| Fc1ccc(C2CC(Cc3c[nH]cn3)c3cc(F)ccc32)cc1 (stereo not shown) [Compound 15, 4-[6-Fluoro-3-(4-fluorophenyl)indan-1-ylmethyl]-1H-imidazole] | pA2 = 6.2 |
| c1ccc(C2Cc3ccccc3C2Cc2c[nH]cn2)cc1 (stereo not shown) [Compound 16, 4-[(2,3-Dihydro-2-phenyl-1H-inden-1-yl)methyl]-1H-imidazole] | pA2 = 6.5 |
